Laboratory results reported in patent US20210094954A1, “PREPARATION METHODS AND APPLICATIONS OF 3,5-DISUBSTITUTED METHYLPYRAZOLO[1,5-A]PYRIMIDINE-7-HYDROXYLIC SALTS” (priority 2019, published 2021).
Like-named read-outs stand apart in the source and are kept apart here.

Tests used:
Assay type in all cases: cell-based
[1] = test system: Bacillus cereus 2; assay: microbe, parasite or virus in culture; conditions: 37° C., 24 hours; for MIC: Bacillus cereus, 2, read-out: MIC values of in vitro antibacterial test results
[2] = test system: Bacillus subtilis 168; assay: microbe, parasite or virus in culture; conditions: 37° C., 24 hours; for MIC: Bacillus subtilis, 168, read-out: MIC values of in vitro antibacterial test results
[3] = test system: Enterococcus faecalis 29212; assay: microbe, parasite or virus in culture; conditions: 37° C., 24 hours; for MIC: Enterococcus faecalis, 29212, read-out: MIC values of in vitro antibacterial test results
[4] = test system: Enterococcus faecalis F2518(VRE); assay: microbe, parasite or virus in culture; conditions: for MIC: Enterococcus faecalis, VRE, 24 h, read-out: MIC values of in vitro antibacterial test results
[5] = test system: Staphylococcus aureus 29231; assay: microbe, parasite or virus in culture; conditions: 37° C., 24 hours; for MIC: Staphylococcus aureus, 29231, read-out: MIC values of in vitro antibacterial test results
[6] = test system: Staphylococcus aureus 43300(MRSA); assay: microbe, parasite or virus in culture; conditions: for MIC: Staphylococcus aureus, MRSA
[7] = test system: Staphylococcus aureus 703(MRSA); assay: microbe, parasite or virus in culture; conditions: for MIC: Staphylococcus aureus, MRSA
[8] = test system: Streptococcus pneumoniae 6303 (PRSP); assay: microbe, parasite or virus in culture; conditions: for MIC: Streptococcus pneumoniae, PRSP, 24 h, read-out: MIC values of in vitro antibacterial test results
[9] = test system: Streptococcus pneumoniae M2; assay: microbe, parasite or virus in culture; conditions: 37° C., 24 hours; for MIC: Streptococcus pneumoniae, M2, read-out: MIC values of in vitro antibacterial test results
[10] = test system: Streptococcus agalactia B group; assay: microbe, parasite or virus in culture; conditions: 37° C., 24 hours; for MIC: Streptococcus, read-out: MIC values of in vitro antibacterial test results
[11] = test system: Streptococcus pneumoniae 10351; assay: microbe, parasite or virus in culture; conditions: 37° C., 24 hours; for MIC: Streptococcus pneumoniae, 10351, read-out: MIC values of in vitro antibacterial test results
[12] = test system: Bacillus anthracis Bacillus 1; assay: microbe, parasite or virus in culture; conditions: for MIC: Bacillus anthracis, 24 h, read-out: MIC values of in vitro antibacterial test results
[13] = test system: Diphtheria bacilli; assay: organism not typed; conditions: 37° C., 24 hours; for MIC: read-out: MIC values of in vitro antibacterial test results
[14] = test system: Clostridium perfringens; assay: microbe, parasite or virus in culture; conditions: for MIC: Clostridium perfringens, 24 h, read-out: MIC values of in vitro antibacterial test results
[15] = test system: Oral Candida; assay: microbe, parasite or virus in culture; conditions: for MIC: Candida
[16] = test system: Peel fungus; assay: organism not typed; conditions: 37° C., 24 hours; for MIC: read-out: MIC values of in vitro antibacterial test results
[17] = test system: F2518(VRE), Staphylococcus aureus resistant strain 43300(MRSA), 703 (MRSA), pneumococcal resistance bacteria 6303(PRSP); assay: microbe, parasite or virus in culture; conditions: read-out: MIC values (μM)
[18] = 24 h, read-out: MIC values of in vitro antibacterial test results
[19] = 37° C., 24 hours, read-out: MIC values of in vitro antibacterial test results

Compound	MIC [1] [µg/mL]	MIC [2] [µg/mL]	MIC [3] [µg/mL]	MIC [4] [µg/mL]	MIC [5] [µg/mL]	MIC [6, 18] [µg/mL]	MIC [7, 18] [µg/mL]	MIC [8] [µg/mL]	MIC [9] [µg/mL]	MIC [10] [µg/mL]	MIC [11] [µg/mL]	MIC [12] [µg/mL]	MIC [13] [µg/mL]	MIC [14] [µg/mL]	MIC [15, 19] [µg/mL]	MIC [16] [µg/mL]	MIC [17] [µg/mL]	MIC ([15]; read-out: MIC values (μM)) [µg/mL]	also measured
COc1ccc(-c2cc([O-])n3nc(C)c(-c4ccc(F)cc4F)c3n2)cc1.[Na+] [Compound 4, Sodium 3-(2,4-difluorophenyl)-5-(4-methoxyphenyl)-2-methylpyrazolo[1,5-α]pyrimidin-7-olate]	< 150	> 150	< 150	< 150	> 150	< 100	< 150	> 150	< 150	> 150	> 150	> 150	> 150	> 150	< 150	< 150	< 100		
Cc1nn2c([O-])cc(-c3ccc(C(F)(F)F)cc3)nc2c1-c1ccc(F)cc1F.[K+] [Compound 22, potassium 3-(2,4-difluorophenyl)-2-methyl-5-(4-(trifluoromethyl)phenyl)pyrazolo[1,5-α]pyrimidin-7-olate]	< 100	< 100	< 150	< 150	< 100	< 100	< 100	< 150	< 100	< 150	< 150	> 150	> 150	> 150	< 100	< 150	< 100	< 100	
Cc1nn2c([O-])cc(-c3ccc(S(=O)[O-])cc3)nc2c1-c1ccc(F)cc1F.[Na+].[Na+] [Compound 8]	< 150	> 150	< 150	< 150	> 150	< 150	< 150	> 150	< 150	> 150	> 150	> 150	> 150	> 150	< 150	< 150			
Cc1nn2c([O-])cc(-c3ccc([N+](=O)[O-])nc3)nc2c1-c1ccc(F)cc1F.[Na+] [Compound 16, sodium 3-(2,4-difluorophenyl)-2-methyl-5-(6-nitropyridin-3-yl)pyrazolo[1,5-α]pyrimidin-7-olate]	< 100	< 150	< 100	< 150	< 100	< 150	< 100	< 100	< 150	> 150	< 100	> 150	> 150	> 150	< 100	> 150	< 100	< 100	
Cc1nn2c([O-])cc(-c3ccc(C#N)cc3)nc2c1-c1ccc(F)cc1F.[Na+] [Compound 2, Sodium 5-(4-cyanophenyl)-3-(2,4-difluorophenyl)-2-methylpyrazolo[1,5-α]pyrimidin-7-olate]	< 100	< 150	< 100	< 150	< 100	< 50	< 50	< 150	< 150	< 150	< 100	> 150	> 150	> 150	< 150	< 150	< 100		MIC ([6]; read-out: MIC values (μM)): < 50 µg/mL; MIC ([7]; read-out: MIC values (μM)): < 50 µg/mL
Cc1nn2c([O-])cc(-c3ccc(C(F)(F)F)nc3)nc2c1-c1ccc(F)cc1F.[Na+] [Compound 14, Sodium 3-(2,4-difluorophenyl)-2-methyl-5-(6-(trifluoromethyl)pyridin-3-yl)pyrazolo[1,5-α] pyrimidin-7-olate]	< 100	< 100	< 100	< 150	< 100	< 150	< 100	< 100	< 150	> 150	< 100	> 150	> 150	> 150	< 100	> 150	< 100	< 100	
Cc1nn2c([O-])cc(-c3ccc([S](=O)(=O)[Na])nc3)nc2c1-c1ccc(F)cc1F.[Na+] [Compound 28, Disodium 5-(3-(2,4-difluorophenyl)-2-methyl-7-hydroxypyrazolo[1,5-α]pyrimidin-5-yl)pyridine-2-sulfinate]																			MIC values of in vitro antibacterial test results [1]: ++ (key: − represents the MIC value (μM) > 150 μg/mL; + represents the MIC value (μM) < 150 μg/mL; ++ represents the MIC value (μM) < 100 μg/mL; +++ represents the MIC value (μM) < 50 μg/mL); MIC values of in vitro antibacterial test results [2]: − (key: − represents the MIC value (μM) > 150 μg/mL; + represents the MIC value (μM) < 150 μg/mL; ++ represents the MIC value (μM) < 100 μg/mL; +++ represents the MIC value (μM) < 50 μg/mL); MIC values of in vitro antibacterial test results [3]: + (key: − represents the MIC value (μM) > 150 μg/mL; + represents the MIC value (μM) < 150 μg/mL; ++ represents the MIC value (μM) < 100 μg/mL; +++ represents the MIC value (μM) < 50 μg/mL); MIC values of in vitro antibacterial test results ([4]; 37° C., 24 hours): + (key: − represents the MIC value (μM) > 150 μg/mL; + represents the MIC value (μM) < 150 μg/mL; ++ represents the MIC value (μM) < 100 μg/mL; +++ represents the MIC value (μM) < 50 μg/mL); MIC values of in vitro antibacterial test results [5]: − (key: − represents the MIC value (μM) > 150 μg/mL; + represents the MIC value (μM) < 150 μg/mL; ++ represents the MIC value (μM) < 100 μg/mL; +++ represents the MIC value (μM) < 50 μg/mL); MIC values of in vitro antibacterial test results ([6]; 37° C., 24 hours): + (key: − represents the MIC value (μM) > 150 μg/mL; + represents the MIC value (μM) < 150 μg/mL; ++ represents the MIC value (μM) < 100 μg/mL; +++ represents the MIC value (μM) < 50 μg/mL); MIC values of in vitro antibacterial test results ([7]; 37° C., 24 hours): + (key: − represents the MIC value (μM) > 150 μg/mL; + represents the MIC value (μM) < 150 μg/mL; ++ represents the MIC value (μM) < 100 μg/mL; +++ represents the MIC value (μM) < 50 μg/mL); MIC values of in vitro antibacterial test results ([8]; 37° C., 24 hours): − (key: − represents the MIC value (μM) > 150 μg/mL; + represents the MIC value (μM) < 150 μg/mL; ++ represents the MIC value (μM) < 100 μg/mL; +++ represents the MIC value (μM) < 50 μg/mL); MIC values of in vitro antibacterial test results [9]: ++ (key: − represents the MIC value (μM) > 150 μg/mL; + represents the MIC value (μM) < 150 μg/mL; ++ represents the MIC value (μM) < 100 μg/mL; +++ represents the MIC value (μM) < 50 μg/mL); MIC values of in vitro antibacterial test results [10]: − (key: − represents the MIC value (μM) > 150 μg/mL; + represents the MIC value (μM) < 150 μg/mL; ++ represents the MIC value (μM) < 100 μg/mL; +++ represents the MIC value (μM) < 50 μg/mL); MIC values of in vitro antibacterial test results [11]: − (key: − represents the MIC value (μM) > 150 μg/mL; + represents the MIC value (μM) < 150 μg/mL; ++ represents the MIC value (μM) < 100 μg/mL; +++ represents the MIC value (μM) < 50 μg/mL); MIC values of in vitro antibacterial test results ([12]; 37° C., 24 hours): − (key: − represents the MIC value (μM) > 150 μg/mL; + represents the MIC value (μM) < 150 μg/mL; ++ represents the MIC value (μM) < 100 μg/mL; +++ represents the MIC value (μM) < 50 μg/mL); MIC values of in vitro antibacterial test results [13]: − (key: − represents the MIC value (μM) > 150 μg/mL; + represents the MIC value (μM) < 150 μg/mL; ++ represents the MIC value (μM) < 100 μg/mL; +++ represents the MIC value (μM) < 50 μg/mL); MIC values of in vitro antibacterial test results ([14]; 37° C., 24 hours): − (key: − represents the MIC value (μM) > 150 μg/mL; + represents the MIC value (μM) < 150 μg/mL; ++ represents the MIC value (μM) < 100 μg/mL; +++ represents the MIC value (μM) < 50 μg/mL); MIC values of in vitro antibacterial test results ([15]; 37° C., 24 hours): ++ (key: − represents the MIC value (μM) > 150 μg/mL; + represents the MIC value (μM) < 150 μg/mL; ++ represents the MIC value (μM) < 100 μg/mL; +++ represents the MIC value (μM) < 50 μg/mL); MIC values of in vitro antibacterial test results [16]: + (key: − represents the MIC value (μM) > 150 μg/mL; + represents the MIC value (μM) < 150 μg/mL; ++ represents the MIC value (μM) < 100 μg/mL; +++ represents the MIC value (μM) < 50 μg/mL)
